Measurements from patent publication US20100204277A1, “Compositions and Methods for Controlling Infestation” (HATCHTECH PTY LTD., priority 2007, published 2010).

How the values were obtained:
[1] = tested on: Helicoverpa armigera eggs; test: Helicoverpa egg hatch; details: 10 mM; Example 16; exposed 2-10 seconds; day 6 post laying
Method: A range of concentrations were made up in water and the eggs placed in the solutions for approximately 2-10 seconds. The eggs which had been laid on cloth were then blotted dry and placed in an incubator at 26° C. for 3-4 days until hatch. Hatch rates were then assessed compared to a water only treated control (FIG. 5).
The compound was dissolved in 100% diethoxyglycol and diluted to a final concentration of 1% in water.
Several hundred Helicoverpa armigera eggs (Tatura×Toowoomba strains) were collected, that had been laid on fine mesh cloth over a 24 hour period.
Batches of Helicoverpa eggs were exposed to a specific inhibitor solution for between 2-10 seconds the excess solution drained by blotting with dry tissue paper. The egg masses were then placed in a humid box at 25 degrees until egg hatch. Control eggs were exposed to absolute methanol as described above. At day 6 post laying the eggs were assessed from the different treatments and the percentage of egg hatch determined relative to the control as shown in Table 12.
Batches of Helicoverpa eggs were then exposed to a specific inhibitor solution for between 2-10 seconds the excess solution drained by blotting with dry tissue paper. The egg masses were then placed in a humid box at 25° C. until egg hatch. Control eggs were exposed to absolute methanol as described above. At day 6 post laying the eggs were assessed from the different treatments and the percentage of egg hatch determined relative to the control as shown in Table 13.

lice eggs = test: Standard lice egg-hatching assay with commercial head lice products; assay type: in vivo; details: Example 10; products per manufacturer's recommendations, 1,10-phenanthroline 10 mM
Method: The ovicidal properties of three major commercial head lice products were evaluated in the standard lice egg-hatching assay. The 3 commercial head lice products were as follows:
These three products were tested according to manufacturer's recommendations. Groups of eggs (24 hours old) were treated with the different products according to manufacturer's recommendations for the appropriate period of time (5-10 minutes) followed by a rinse for 1-2 minutes in 32° C. water. A positive controls (10 mM 1,10-phenanthroline) and two negative controls (no treatment and 20% Methanol) were also incorporated. Post exposure to the different products, the eggs were rinsed with warm water at 32° C. before being blotted dry on tissue paper and placed at 32° C., 70% RH and left to hatch. A second group of eggs, (48 hours old) were treated as previously described and also left to hatch. This process was repeated at 24 hour intervals on head lice eggs up to 120 hours post laying.
The ovicidal properties of two major commercial head lice products were evaluated in the standard lice egg-hatching assay. The 2 commercial head lice products were as follows:
These two products were tested according to manufacturer's recommendations. […]

[2] = tested on: proteases in louse egg shell washings (ESW); test: Gelatine substrate SDS-PAGE of louse egg shell washings incubated with protease inhibitors; assay type: biochemical, Pediculus humanus humanus
Method: Within 12 hours of hatching 50 body lice eggs (Pediculus humanus humanus) were removed from the hair and placed in a 1 mL eppendorf tube. 20 μL of distilled water was added to the unhatched eggs and the preparation incubated for 30 minutes at 32° C. The 20 μL was recovered, freeze dried and stored at −70° C. This sample was referred to as sample 1. A number of other samples were also collected as described. Sample 2 was collected by removing the unhatched louse eggs from four hairs that were approximately 3 cm long, cutting the hair into 0.5 cm lengths, and placing them into a microfuge tube containing 20 μl of distilled water and incubating at 32° C. for 30 minutes. Sample 3 was collected as for sample 2, but the hair was placed in a tube containing 10 mL of 1% sodium hypochlorite for 1 minute followed by five 1 minute washes in 25 mL of distilled water to remove the sodium hypochlorite before being incubated in a microfuge tube containing 20 μl of distilled water and incubated as for Sample 2. Sample 4 was collected from unhatched eggs which were removed from the hair and washed with 1% sodium hypochlorite and incubated in 20 μl of distilled water in the same manner as the hair in Sample 3. Finally, Sample 5 was collected from eggs that were within 24 hrs of hatching which were washed with 1% sodium hypochlorite, then returned to the incubator at 32° C. until they hatched, the empty egg shells collected 0-2 hrs after egg-hatching, placed in a 1 mL microfuge tube containing 20 μl of distilled water and incubated as for Samples 1-4. For all samples 1-5 the 20 μl of fluid was recovered, freeze-dried and stored at −70° C. The washings recovered from these freshly hatched egg shells are referred to as egg-shell-washings (ESWs). In order to look for the presence of proteases present in these different samples, the freeze-dried samples were resuspended in 15 μL of non-reducing SDS sample buffer, centrifuged at 10,000 g for 2 minutes and the entire 15 μL loaded on to 10% gelatine substrate SDS-PAGE gels. Gels were run at 4° C. for 10 minutes at 10 mA followed by a further 25 minutes at 15 mA per gel. They were then incubated for 2×20 minutes in a 2.5% Triton-X 100 solution followed by a three hour incubation in 0.1M Tris/HCl containing 1 mM CaCl2 pH 8.0. Activity was detected as clear areas on the gel the result of protease activity degrading the gelatine within the gel.
Protease activity in the ESWs from louse eggs was also examined using two-dimensional gel electrophoresis. It was necessary to collect large numbers of freshly hatched egg shells. Following egglaying onto pieces of cloth, adult female lice were removed and the cloth with the eggs washed with 1% sodium hypochlorite as for collection of ESWs. The eggs were then returned to the incubator and permitted to hatch. Typically 100 to 500 hatched egg shells were collected (0-2 hours post hatching), placed in a microfuge tube containing 200 μl of distilled water, incubated and sample treated as described above. For analysis, ESWs were resuspended in rehydration buffer (8 M Urea, 2% 3-[(3-cholamidopropyl) dimethylammonio]-1-propanesulfonate 2% Immobilised pH gradient buffer 3-10 (Amersham Phamacia Biotech, Uppsala, Sweden)) and used to rehydrate 7 cm Immobiline Dry strips pH 3-10 (Amersham Bioscience) overnight. Strips were transferred to the Multiphor II (Pharmacia, Sweden) apparatus, electrophoresed in the first dimension at 200 V for 1 min, increasing to 3,500 V over the next 90 min followed by 65 min at 3,500 V, equilibrated (6 M urea, 30% glycerol, 50 mM Tris pH 8.8 and 2% SDS) and then run on a 10% SDS-PAGE gel containing 0.1% gelatin for the second dimension. The gel was then run and developed as previously described.
10% SDS-PAGE gelatine substrate gels were loaded with freeze dried egg shell washings from 100 lice eggs that had been resuspended in 50 μL of non-reducing sample buffer with samples run at 10 μL per lane. […]

head lice egg = test: Head lice egg hatching, time course; assay type: in vivo, Pediculus humanus capitus; details: 10 mM, 10 minutes
Method: Tests were carried out to determine if metal chelating agent and metalloprotease inhibitor 1,10-phenanthroline could inhibit head lice egg (Pediculus humanus capitus) hatching as opposed to body lice. Head lice eggs were obtained by placing groups of both 1-2 adult male and 6-8 adult female head lice in separate wells in a 24 well petri dish containing cotton cloth. The petri dish was transferred to a humid incubator at 32° C., 70% RH for 12 hours to permit the female lice to lay their eggs. After 12 hours, all adult lice were removed from the petri dish wells and a series of time-course experiments conducted. A group of eggs (24 hr old) was treated for 10 minutes with 200 μL of a 10 mM solution of 1,10-phenanthroline. A control (ie no inhibitor treatment) group of eggs was also included. The eggs were removed from the inhibitor, blotted dry on tissue paper, placed at 32° C., 70% RH and left to hatch. A second group of eggs, (48 hours old) were treated as previously described and also left to hatch. This process was repeated at 24 hour intervals on head lice eggs up to 120 hours post laying.

[3] = tested on: Lice (L) / Plutella (P) eggs; assay type: in vivo; details: 10 mM; Lice/Plutella: L P
Method: Log LD50 is obtained from the observed percentage ovicidal activity by conversion using a modified logit transformation. The observed percentage ovicidal activity values were transformed using the equation:
The additional 5% was used to allow a number to be calculated when 0% and 100% activity was observed. The BA is a crude correction to the log of the concentration at which the compounds were tested. Correlation between BA values and LD50 allows the calculation of Log LD50. […] A number of metal chelating agents with potential for inhibiting the remodelling events associated with thin membrane egg hatching in lice were analysed by comparing their percentage ovicidal activity in lice at different concentrations, their logit calculated pLD50, Pref pLD50, Activity class, clogP and molar refractivity were determined.

[4] = tested on: body lice eggs (clothing lice); test: In vitro lice egg hatching bioassay (standard lice assay, time course)
Method: Male and female clothing lice were fed on a rabbit as previously described. Female and male adult lice in a ratio of 3:1 were then transferred to a clean petri dish containing nylon cloth approximately 3×3 cm^2 and left for 12 hours at 32° C. During this period the female lice laid their eggs and attached them to the woven cloth. All lice would then be removed and the eggs permitted to incubate for the following 5 days. On Day 6 the cloth containing the eggs would be placed for 1 minute in a 1% sodium hypochlorite solution and then washed extensively. The eggs would then progress through to their final stages of development and hatch.
Lice eggs were laid onto cloth as described above. Five days post laying the cloth containing lice eggs was removed and immersed in a 1% sodium hypochlorite solution before being washed extensively in distilled water and blotted dry on tissue paper. Lice eggs were counted under a dissecting microscope and the cloth cut into batches of between 10-30 eggs with 3-5 replicates used per treatment. The cloth containing lice eggs was then immersed in a protease inhibitor solution for a period of 10 minutes, placed on tissue paper for 1 minute to dry before being transferred to a clean petri dish and incubated until hatching. […] Specifically a stock solution was prepared as follows: 1,10-phenanthroline (200 mM in methanol). In addition, the equivalent levels of the solvent were added to the non-inhibitor containing controls eggs to test for any buffer alone effects. Percentage hatch inhibition was calculated as the percentage reduction in egg hatch compared to the untreated control. The untreated control was assigned a percentage hatch of 100%.
A series of time-course experiments was conducted as a means of assessing inhibitors of lice egg hatching. […]
An experiment was undertaken to determine whether washing of the eggs would effect the inhibitory activity of 1,10-phenanthroline (Table 3). […] Percentage hatch inhibition was calculated as the percentage reduction in egg hatch compared to the untreated control. […]

[5] = tested on: Plutella xylostella eggs (Waite strain); test: Plutella xylostella egg hatch (egg dip); details: 10 mM; Example 12; dip 2-10 seconds; day 6 post laying
Method: Several hundred Plutella xylostella eggs (Waite strain) were collected, that had been laid over a 24 hour period.
The egg masses were then placed in a humid box at 25° C. until egg hatch. Control eggs were exposed to absolute methanol as described above. At day 6 post laying the eggs were assessed from the different treatments and the percentage of egg hatch determined relative to the control as shown in Table 9.
Batches of Plutella eggs that were laid on either fine cloth or parafilm were dipped in a specific inhibitor solution for between 2-10 seconds, the excess solution was drained by blotting with dry tissue paper. The egg masses were then placed in a humid box at 25 degrees until egg hatch. Control eggs were exposed to absolute methanol as described above or not treated. At day 6 post laying the eggs were assessed from the different treatments and the percentage of egg hatch determined relative to the controls as shown in Tables 10 and 11.
The egg masses were then placed in a humid box at 25 degrees until egg hatch. Control eggs were exposed to absolute ethanol as described above. On day 6 post laying the eggs were assessed from the different treatments and the percentage of egg hatch determined relative to the control.

With `c1cnc2c(c1)ccc1cccnc12` [1,10-phenanthroline] the “% Inhibition of egg hatch relative to control” value [1] was “able to inhibit”, the “ovicidal activity across the different stages of lice egg hatching” value (lice eggs) was “highly effective” and the “protease activity of egg shell washings, two dimensional gel” value ([2]; gel incubated with 10 mM 1,10-phenanthroline) was “general reduction in protease activity in the 25-30 kDa region and a clear reduction in the proteases present around the 50 kDa region and above 75 kDa”. For the same compound, the “protease activity of egg shell washings compared to untreated controls” value ([2]; gelatine SDS-PAGE strips, EDTA 10 mM, 1,10-phenanthroline 10 mM, PMSF 5 mM, E-64 10 μM, Pepstatin 5 μM, 3 hrs at 37° C.) was “reduction in protease activity”, the “egg hatching in head lice” value (head lice egg) was “significantly inhibit” and the “Activity class 0 = inactive 1 = low 2 = med 3 = high” value [3] was 1 (a pLD50 value between 2 and 3 is considered weakly active (Class 1)). The “inhibition of lice egg hatching following washing of eggs in water” value ([4]; 10 mM, 10 minutes, washed 1 minute) was “still highly efficacious”, the “inhibition of egg hatching in lice” value ([4]; 10 mM, eggs treated 5 days post laying, 10 minutes) was “significantly inhibited” and the “egg hatching in lice” value ([4]; 2.5-10 mM, all time points examined) was “significantly inhibit”. For the same compound, the “% Inhibition of egg hatch relative to control” value [5] was “significantly inhibit”.
